Data reported in patent US20190381017A1, “Compositions Comprising Serdexmethylphenidate Conjugates And Methods Of Use Thereof” (KemPharm, Inc., priority 2018, published 2019).

Test system: healthy, nondependent, recreational stimulant users
Assay: Oral abuse potential, VAS pharmacodynamic scores (Example 4)
Details: for Drug Liking Emax (mean) / Drug Liking Emax (median) / Feeling Alert/Drowsy Emax (mean) / Feeling Alert/Drowsy Emax (median) / Overall Drug Liking Emax (mean) / Overall Drug Liking Emax (median) / Take Drug Again Emax (mean) / Take Drug Again Emax (median): bipolar VAS; for Any Effects Emax (mean) / Any Effects Emax (median) / Bad Effects Emax (mean) / Bad Effects Emax (median) / Feeling High Emax (mean) / Feeling High Emax (median) / Good Effects Emax (mean) / Good Effects Emax (median): unipolar VAS
[1] = SDX Cl 120 mg, Focalin XR 80 mg, phentermine HCl 60 mg

COC(=O)[C@H](c1ccccc1)[C@H]1CCCCN1C(=O)OC[n+]1cccc(C(=O)N[C@@H](CO)C(=O)O)c1.[Cl-] [serdexmethylphenidate chloride]
Mean difference Bad Effects Emax vs placebo (SDX Cl 120 mg, Focalin XR 80 mg): 1.3
Mean difference Any Effects Emax vs placebo [1]: 11.0
Mean difference Drug Liking Emax vs placebo [1]: 6.8
Mean difference Feeling Alert/Drowsy Emax vs placebo [1]: 7.7
Mean difference Feeling High Emax vs placebo [1]: 10.4
Mean difference Good Effects Emax vs placebo [1]: 12.1
Mean difference Overall Drug Liking Emax vs placebo [1]: 3.8
Mean difference Take Drug Again Emax vs placebo [1]: 2.2
Drug Liking Emax (mean) [1]: 62.8
Drug Liking Emax (median) [1]: 53.0
Feeling Alert/Drowsy Emax (mean) [1]: 64.4
Feeling Alert/Drowsy Emax (median) [1]: 54.0
Overall Drug Liking Emax (mean) [1]: 58.5
Overall Drug Liking Emax (median) [1]: 50.0
Take Drug Again Emax (mean) [1]: 57.4
Take Drug Again Emax (median) [1]: 50.0
Any Effects Emax (mean) [1]: 28.8
Any Effects Emax (median) [1]: 14.0
Bad Effects Emax (mean) [1]: 6.04
Bad Effects Emax (median) [1]: 0.0
Feeling High Emax (mean) [1]: 25.6
Feeling High Emax (median) [1]: 7.0
Good Effects Emax (mean) [1]: 27.0
Good Effects Emax (median) [1]: 10.0
Mean difference Any Effects Emax vs placebo (SDX Cl 240 mg): 20.5
Mean difference Bad Effects Emax vs placebo (SDX Cl 240 mg): 8.6
Mean difference Drug Liking Emax vs placebo (SDX Cl 240 mg): 8.3
Mean difference Feeling Alert/Drowsy Emax vs placebo (SDX Cl 240 mg): 11.2
Mean difference Feeling High Emax vs placebo (SDX Cl 240 mg): 18.8
Mean difference Good Effects Emax vs placebo (SDX Cl 240 mg): 17.4
Mean difference Overall Drug Liking Emax vs placebo (SDX Cl 240 mg): 3.3
Mean difference Take Drug Again Emax vs placebo (SDX Cl 240 mg): 1.7
Drug Liking Emax (mean) (SDX Cl 240 mg): 63.8
Drug Liking Emax (median) (SDX Cl 240 mg): 59.0
Feeling Alert/Drowsy Emax (mean) (SDX Cl 240 mg): 67.4
Feeling Alert/Drowsy Emax (median) (SDX Cl 240 mg): 64.0
Overall Drug Liking Emax (mean) (SDX Cl 240 mg): 58.0
Overall Drug Liking Emax (median) (SDX Cl 240 mg): 51.0
Take Drug Again Emax (mean) (SDX Cl 240 mg): 56.9
Take Drug Again Emax (median) (SDX Cl 240 mg): 50.0
Any Effects Emax (mean) (SDX Cl 240 mg): 37.0
Any Effects Emax (median) (SDX Cl 240 mg): 23.0
Bad Effects Emax (mean) (SDX Cl 240 mg): 13.4
Bad Effects Emax (median) (SDX Cl 240 mg): 0.0
Feeling High Emax (mean) (SDX Cl 240 mg): 32.1
Feeling High Emax (median) (SDX Cl 240 mg): 19.0
Good Effects Emax (mean) (SDX Cl 240 mg): 30.8
Good Effects Emax (median) (SDX Cl 240 mg): 15.0
